Laboratory results published in patent publication US6903083B2, “Stabilized hydroxyvitamin D” (Bone Care International, Inc., priority 2000, dated 2005).

How the values were obtained:
Type in all cases: physicochemical
[1] = Stability testing of 1α,24(S)-dihydroxyvitamin D2 containing >0.5% residual solvents, 60° C. for 48 hours, HPLC (Example 9); settings: capped vial
Protocol: Approximately 1 mg of 1α,24(S)-dihydroxyvitamin D2 containing >0.5% residual solvents (non-SHVD) was placed in a capped vial and heated at 60° C. for 48 hours. The contents of the vial were dissolved in ethanol to produce a 1 mg/mL solution. The solution (10 μL) was analyzed by the following HPLC conditions: a YMC Pack Pro C18 column (4.6×150 mm, 5 μm) with a mobile phase of acetonitrile: water (50:50) at a flow rate of 1.0 mL/min.

[2] = Storage stability testing of SHVD2, long-term storage at −70° C., HPLC and UV
Protocol: (§1) The stability of samples from four lots of SHVD2 was examined at 6-month intervals during long-term storage at −70° C. All lots were stored in the container-closure system selected as packaging for the drug substance. Stability was assessed by examining samples for changes in (1) weight percent 1α-OH-D2 content, (2) percent related substances content, and (3) impurity profile, using HPLC. In addition, all lots were examined for changes in UV spectrum by UV spectrophotometry.

[3] = Stability testing SHVD2 v. commercially available 1α-OH-D2, oven at about 60° C., HPLC (Example 7); settings: solid in test tube, present-tense example
Protocol: Approximately 1 mg of SHVD2 or commercial 1α-hydroxyvitamin D2 is placed in each of 2 (12×75 mm) test tubes. One test tube from each of the two preparations is placed in an oven at about 60° C. For analysis, the contents in each test tube are dissolved in ethanol to produce a 1 mg/mL solution. Each solution (10 μL) is analyzed by the following HPLC conditions: a YMC Pack C8 column (4.6×250 mm, 5 μm) with a mobile phase of acetonitrile: methanol: water (60:20:20) at a flow rate of 1.0 mL/min.

[4] = Stability testing SHVD2 v. non-SHVD2, oven at about 60° C., HPLC (Example 6); settings: 0 to 48 hours, solid in test tube, present-tense example
Protocol: Approximately 1 mg of SHVD2 or non-stabilized 1α-hydroxyvitamin D2 (non-SHVD2) is placed in each of 9 (12×75 mm) test tubes. The test tubes are placed in an oven at about 60° C. One test tube of each of the two vitamin D2 preparations is removed at 0, 3, 6, 9, 12, 18, 24, 36 and 48 hours of incubation. The contents in each test tube are dissolved in ethanol to produce a 1 mg/mL solution. Each solution (10 μL) is analyzed by the following HPCL conditions: a YMC Pack C8 column (4.6×250 mm, 5 μm) with a mobile phase of acetonitrile: methanol: water (60:20:20) at a flow rate of 1.0 mL/min.

[5] = Stability testing SHVD2 v. non-SHVD2 (ethanol vapour exposed), 60° C. for 48 hours, HPLC (Example 8); settings: non-SHVD2 made by exposure to ethanol vapors
Protocol: Approximately 1 mg of stabilized 1α-hydroxyvitamin D2 (doxercalciferol) (SHVD2) was placed in each of two test tubes (12×75 mm). One sample was placed in a dessicator containing an atmosphere of ethanol vapors to increase the residual solvent content of the material to form non-stabilized doxercalciferol (non-SHVD2). The material in the dessicator was heated at 60° C. for 48 hours. The other sample was not subjected to the ethanol atmosphere, thereby retaining its stabilized form, but was heated at 60° C. for 48 hours. The contents in each test tube were dissolved in ethanol to produce a 1 mg/mL solution. Each solution (10 μL) was analyzed by the following HPLC conditions: a YMC Pack C8 column (4.6×250 mm, 5 μm) with a mobile phase of acetonitrile: methanol: water (60:20:20) at a flow rate of 1.0 mL/min.

[6] = Storage stability testing of stabilized 24-hydroxyvitamin D2, long-term storage at −70° C., HPLC and UV (Example 11); settings: present-tense example
Protocol: as §1, with “stabilized 24-Hydroxyvitamin D2 is” for “SHVD2 was”, “are” for “were”, “is” for “was”, “24-OH-D2” for “1α-OH-D2”

C=C1/C(=C\C=C2/CCC[C@]3(C)[C@@H]([C@H](C)/C=C/[C@@](C)(O)C(C)C)CC[C@@H]23)C[C@@H](O)C[C@@H]1O [1α,24(S)-dihydroxyvitamin D2]
appearance of a new compound by HPLC after heating [1]: a compound with a relative retention time of approximately 0.85 compared with standard 1α,24(S)-dihydroxyvitamin D2 was observed

C=C1/C(=C\C=C2/CCC[C@]3(C)[C@@H]([C@H](C)/C=C/[C@H](C)C(C)C)CC[C@@H]23)C[C@@H](O)C[C@@H]1O [SHVD2, 1α-hydroxyvitamin D2]
impurity profile chromatography, new peaks relative to baseline ([2]; 6 or 12 months): no new peaks | weight % 1α-OH-D2 content ([2]; all four lots, all time points (baseline, 6, 12 months), HPLC): > 98.0% | percent related substances ([2]; baseline to 12 months, HPLC): < 2.0% | differences in mean weight % 1α-OH-D2 content between baseline and 6 or 12 months ([2]; four lots): no significant differences

C=C1/C(=C\C=C2/CCC[C@]3(C)[C@@H]([C@H](C)/C=C/[C@H](C)C(C)C)CC[C@@H]23)C[C@@H](O)C[C@@H]1O [commercial 1α-hydroxyvitamin D2, 1α-hydroxyvitamin D2]
rate of appearance of the peak with relative retention time of approximately 0.9 compared with the 1α-hydroxyvitamin D2 peak [3]: greater with the commercial 1α-hydroxyvitamin D2 than with SHVD2

C=C1/C(=C\C=C2/CCC[C@]3(C)[C@@H]([C@H](C)/C=C/[C@H](C)C(C)C)CC[C@@H]23)C[C@@H](O)C[C@@H]1O [non-SHVD2, 1α-hydroxyvitamin D2]
rate of appearance of the peak with relative retention time of approximately 0.9 compared with the 1α-hydroxyvitamin D2 peak [4]: greater with the non-SHVD2 than with SHVD2 | rate of appearance of the peak with relative retention time of approximately 0.9 compared with the doxercalciferol peak [5]: greater with the non-SHVD2 material than with SHVD2

C=C1CC[C@H](O)C/C1=C/C=C1\CCC[C@]2(C)[C@@H]([C@H](C)/C=C/C(C)(O)C(C)C)CC[C@@H]12 (stereo partly drawn) [stabilized 24-Hydroxyvitamin D2, 24-hydroxyvitamin D2]
impurity profile chromatography, new peaks relative to baseline ([6]; 6 or 12 months): no new peaks | weight % 24-OH-D2 content ([6]; all four lots, all time points): > 98.0% | percent related substances ([6]; baseline to 12 months): < 2.0% | differences in mean weight % 24-OH-D2 content between baseline and 6 or 12 months [6]: No significant differences
